Experiments:
IKZF2 = target: T1, IKZF2 (Homo sapiens, UniProt Q96SW2+Q9UKS7); assay: Western blot degradation of IKZF2 in hPBMC; type: cell-based
T1 construct: endogenous in cells; host or cells: hPBMC
Description: (§1) Conventional Western blot assay was performed to evaluate the effects of the compounds of the present disclosure on the expression of target proteins in cells.
(§2) • (1) Cell Seeding and Protein Harvesting: The selected cells were processed according to the cell seeding procedure and protein harvesting procedure in Table III-2.
(§3) • (2) To the collected supernatant, 5×SDS sample loading buffer was added, followed by denaturation at 95° C. for 5 minutes. The denatured samples were then separated by SDS-PAGE electrophoresis on a polyacrylamide gel. Proteins were transferred to a nitrocellulose membrane ([…] NC membrane), blocked with blocking buffer at room temperature for 1 hour, and subjected to antibody incubation and development procedures according to the antibody manufacturer's instructions (Cell Signaling Technology).
(§4) Half-Maximal Degradation Concentration value (the drug concentration required for degrading proteins by 50%, abbreviated as DC50) reads method: comparing the grayscale values of Western blot bands from drug-treated samples with those from blank DMSO-treated controls, and identifying the drug concentration range at which the grayscale value is half that of the DMSO-treated control bands.
(§5) DC50 values can be calculated using ImageJ software to measure grayscale values of Western blot bands from drug-treated samples. The concentration-response curve is fitted to estimate the drug concentration corresponding to half the grayscale value.
(§6) Target protein remaining (0%) refers to the percentage of target protein remaining in hPBMC cells after treatment with protein degrader compounds.
(§7) Calculation method for target protein remaining (0%): Use ImageJ software to measure grayscale values of Western blot bands from drug (protein degrader)-treated samples. The grayscale value of drug-treated bands is divided by that of internal control protein bands, and the resulting quotient is normalized to obtain the relative percentage of remaining target protein after protein degrader treatment.

CK1a = target: T2, CK1a (Homo sapiens, UniProt P48729+Q96SW2); assay: Western blot degradation of CK1a in hPBMC; type: cell-based
T2 construct: endogenous in cells; host or cells: hPBMC
T2 sequence (P48729 whole entry): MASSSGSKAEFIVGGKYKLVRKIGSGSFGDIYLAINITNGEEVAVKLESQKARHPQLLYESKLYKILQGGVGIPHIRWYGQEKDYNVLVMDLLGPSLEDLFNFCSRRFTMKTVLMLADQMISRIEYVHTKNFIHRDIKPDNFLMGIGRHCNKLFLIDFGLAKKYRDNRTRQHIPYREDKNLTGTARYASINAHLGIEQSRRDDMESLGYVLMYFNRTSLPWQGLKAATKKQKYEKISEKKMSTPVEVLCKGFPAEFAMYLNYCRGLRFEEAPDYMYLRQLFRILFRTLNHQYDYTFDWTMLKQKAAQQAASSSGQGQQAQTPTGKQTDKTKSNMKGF
T2 sequence (Q96SW2 whole entry): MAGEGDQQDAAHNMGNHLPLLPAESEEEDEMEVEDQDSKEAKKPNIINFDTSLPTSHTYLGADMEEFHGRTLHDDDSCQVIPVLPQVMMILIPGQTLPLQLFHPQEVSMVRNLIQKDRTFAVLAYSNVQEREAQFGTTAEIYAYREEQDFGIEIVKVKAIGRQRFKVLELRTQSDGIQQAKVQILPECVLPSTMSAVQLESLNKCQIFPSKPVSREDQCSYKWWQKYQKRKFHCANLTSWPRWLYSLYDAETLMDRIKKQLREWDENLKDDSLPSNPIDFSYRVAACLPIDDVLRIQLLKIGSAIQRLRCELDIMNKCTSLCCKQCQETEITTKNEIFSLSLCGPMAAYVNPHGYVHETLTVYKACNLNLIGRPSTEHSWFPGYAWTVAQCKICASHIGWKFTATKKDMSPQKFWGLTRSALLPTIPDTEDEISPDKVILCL
T2 sequence (Q16531 whole entry partner): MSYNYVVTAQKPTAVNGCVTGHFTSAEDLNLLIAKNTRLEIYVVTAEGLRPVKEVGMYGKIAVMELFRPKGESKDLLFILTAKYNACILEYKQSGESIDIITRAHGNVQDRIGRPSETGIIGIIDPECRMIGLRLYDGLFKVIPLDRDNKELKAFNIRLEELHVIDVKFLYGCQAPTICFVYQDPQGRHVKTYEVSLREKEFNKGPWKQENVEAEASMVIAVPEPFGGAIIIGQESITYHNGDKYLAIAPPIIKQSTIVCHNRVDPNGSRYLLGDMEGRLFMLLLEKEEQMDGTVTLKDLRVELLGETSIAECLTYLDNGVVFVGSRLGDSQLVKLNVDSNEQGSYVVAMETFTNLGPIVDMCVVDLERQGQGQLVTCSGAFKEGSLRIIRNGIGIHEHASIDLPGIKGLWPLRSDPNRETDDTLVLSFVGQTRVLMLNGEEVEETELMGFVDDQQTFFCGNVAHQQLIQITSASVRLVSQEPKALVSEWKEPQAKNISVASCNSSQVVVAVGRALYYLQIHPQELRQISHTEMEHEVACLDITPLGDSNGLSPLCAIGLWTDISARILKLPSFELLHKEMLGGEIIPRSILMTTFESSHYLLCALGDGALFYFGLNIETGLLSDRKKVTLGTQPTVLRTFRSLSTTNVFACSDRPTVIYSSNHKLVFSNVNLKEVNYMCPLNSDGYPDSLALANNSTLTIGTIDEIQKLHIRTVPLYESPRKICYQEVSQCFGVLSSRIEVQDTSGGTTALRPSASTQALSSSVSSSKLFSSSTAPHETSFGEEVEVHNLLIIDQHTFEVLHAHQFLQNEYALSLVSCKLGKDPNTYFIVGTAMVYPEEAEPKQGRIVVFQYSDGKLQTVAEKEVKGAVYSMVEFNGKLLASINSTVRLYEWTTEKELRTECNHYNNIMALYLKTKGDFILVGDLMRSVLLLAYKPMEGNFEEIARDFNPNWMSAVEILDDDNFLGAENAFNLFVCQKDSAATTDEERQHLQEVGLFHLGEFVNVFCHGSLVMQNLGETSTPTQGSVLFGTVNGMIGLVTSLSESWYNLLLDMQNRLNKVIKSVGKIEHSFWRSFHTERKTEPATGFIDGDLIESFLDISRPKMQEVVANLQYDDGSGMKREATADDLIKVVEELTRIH
Description: as §1, §2, §3, §4, §5, §6, §7

IKZF3 = target: T3, IKZF3 (Homo sapiens, UniProt Q96SW2+Q9UKT9); assay: Western blot degradation of IKZF3 in hPBMC; type: cell-based
T3 construct: endogenous in cells; host or cells: hPBMC
T3 sequence (Q9UKT9 whole entry): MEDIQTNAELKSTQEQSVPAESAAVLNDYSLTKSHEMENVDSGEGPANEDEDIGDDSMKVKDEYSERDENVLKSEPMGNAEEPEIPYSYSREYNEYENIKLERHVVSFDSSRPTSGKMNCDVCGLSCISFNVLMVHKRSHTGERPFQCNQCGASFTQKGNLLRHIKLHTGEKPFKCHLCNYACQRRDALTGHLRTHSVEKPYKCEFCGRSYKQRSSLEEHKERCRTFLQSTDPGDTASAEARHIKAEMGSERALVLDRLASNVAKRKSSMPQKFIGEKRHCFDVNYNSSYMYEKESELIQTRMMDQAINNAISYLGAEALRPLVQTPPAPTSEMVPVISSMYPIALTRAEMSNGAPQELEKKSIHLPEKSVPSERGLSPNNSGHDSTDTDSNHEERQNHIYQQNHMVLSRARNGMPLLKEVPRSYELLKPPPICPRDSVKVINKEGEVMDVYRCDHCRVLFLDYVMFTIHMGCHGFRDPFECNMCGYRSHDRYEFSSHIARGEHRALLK
T3 sequence (Q96SW2 whole entry): as the sequence (Q96SW2 whole entry) above
T3 sequence (Q16531 whole entry partner): as the sequence (Q16531 whole entry partner) above
Description: as §1, §2, §3, §4, §5, §6, §7

WEE1 = target: T4, WEE1 (Homo sapiens, UniProt P30291+Q96SW2); assay: Western blot degradation of WEE1 in hPBMC; type: cell-based
T4 construct: endogenous in cells; host or cells: hPBMC
T4 sequence (P30291 whole entry): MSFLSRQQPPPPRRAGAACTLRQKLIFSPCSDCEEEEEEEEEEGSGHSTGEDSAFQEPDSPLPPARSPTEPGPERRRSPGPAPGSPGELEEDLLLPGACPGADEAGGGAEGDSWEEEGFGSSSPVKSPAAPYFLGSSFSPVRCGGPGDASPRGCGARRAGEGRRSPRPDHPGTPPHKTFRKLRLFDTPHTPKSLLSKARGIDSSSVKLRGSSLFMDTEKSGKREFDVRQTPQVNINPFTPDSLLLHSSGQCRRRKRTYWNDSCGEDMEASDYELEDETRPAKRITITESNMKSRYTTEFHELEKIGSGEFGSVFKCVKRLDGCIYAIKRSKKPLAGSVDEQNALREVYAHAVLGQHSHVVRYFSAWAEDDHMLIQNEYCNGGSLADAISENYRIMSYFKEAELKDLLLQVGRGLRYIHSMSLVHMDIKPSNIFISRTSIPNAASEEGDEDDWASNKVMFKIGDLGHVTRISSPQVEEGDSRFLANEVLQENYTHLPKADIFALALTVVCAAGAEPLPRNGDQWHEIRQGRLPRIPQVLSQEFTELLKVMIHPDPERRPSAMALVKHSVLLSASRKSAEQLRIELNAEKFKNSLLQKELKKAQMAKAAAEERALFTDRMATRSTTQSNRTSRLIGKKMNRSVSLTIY
T4 sequence (Q96SW2 whole entry): as the sequence (Q96SW2 whole entry) above
T4 sequence (Q16531 whole entry partner): as the sequence (Q16531 whole entry partner) above
Description: as §1, §2, §3, §4, §5, §6, §7

IKZF1 = target: T5, IKZF1 (Homo sapiens, UniProt Q13422+Q96SW2); assay: Western blot degradation of IKZF1 in hPBMC; type: cell-based
T5 construct: endogenous in cells; host or cells: hPBMC
T5 sequence (Q13422 whole entry): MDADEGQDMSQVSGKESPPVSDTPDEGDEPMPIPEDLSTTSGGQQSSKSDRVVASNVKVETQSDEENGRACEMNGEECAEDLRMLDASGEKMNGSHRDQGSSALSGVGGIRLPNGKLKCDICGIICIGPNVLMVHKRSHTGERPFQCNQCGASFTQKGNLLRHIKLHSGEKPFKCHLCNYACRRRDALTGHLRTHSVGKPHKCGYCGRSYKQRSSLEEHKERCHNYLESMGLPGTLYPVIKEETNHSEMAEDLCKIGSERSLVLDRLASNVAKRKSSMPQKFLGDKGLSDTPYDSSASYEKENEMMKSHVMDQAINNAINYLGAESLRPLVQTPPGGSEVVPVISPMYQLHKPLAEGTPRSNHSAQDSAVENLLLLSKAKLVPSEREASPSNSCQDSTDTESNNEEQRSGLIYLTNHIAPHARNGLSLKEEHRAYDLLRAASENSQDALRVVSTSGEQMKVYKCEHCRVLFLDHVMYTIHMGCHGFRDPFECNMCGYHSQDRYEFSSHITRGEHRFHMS
T5 sequence (Q96SW2 whole entry): as the sequence (Q96SW2 whole entry) above
T5 sequence (Q16531 whole entry partner): as the sequence (Q16531 whole entry partner) above
Description: as §1, §2, §3, §4, §5, §6, §7

GSPT1 = target: T6, GSPT1 (Homo sapiens, UniProt P15170+Q96SW2); assay: Western blot degradation of GSPT1 in hPBMC; type: cell-based
T6 construct: endogenous in cells; host or cells: hPBMC
T6 sequence (P15170 whole entry): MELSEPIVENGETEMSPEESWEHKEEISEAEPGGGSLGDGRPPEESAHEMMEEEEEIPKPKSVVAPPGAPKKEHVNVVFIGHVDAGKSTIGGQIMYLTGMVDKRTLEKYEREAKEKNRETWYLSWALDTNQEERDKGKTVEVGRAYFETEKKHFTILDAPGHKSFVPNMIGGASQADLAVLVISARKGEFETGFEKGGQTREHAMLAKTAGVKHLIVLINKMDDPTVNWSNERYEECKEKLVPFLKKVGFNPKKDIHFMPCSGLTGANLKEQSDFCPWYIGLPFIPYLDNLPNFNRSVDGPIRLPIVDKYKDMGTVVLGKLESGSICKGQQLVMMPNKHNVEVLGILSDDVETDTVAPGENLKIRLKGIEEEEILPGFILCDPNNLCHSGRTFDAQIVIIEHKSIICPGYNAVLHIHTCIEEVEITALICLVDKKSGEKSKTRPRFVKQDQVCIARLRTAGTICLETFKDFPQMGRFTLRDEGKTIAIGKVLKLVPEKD
T6 sequence (Q96SW2 whole entry): as the sequence (Q96SW2 whole entry) above
T6 sequence (Q16531 whole entry partner): as the sequence (Q16531 whole entry partner) above
Description: as §1, §2, §3, §4, §5, §6, §7

[1] = target: T7, human Cereblon WT GST-tagged protein (Homo sapiens, UniProt Q96SW2); assay: CRBN binding, HTRF CEREBLON BINDING kit; conditions: CRBN binding, HTRF CEREBLON BINDING kit
T7 construct: purchased CISBIO 64BDCRBNPEH
T7 sequence (Q96SW2 whole entry): as the sequence (Q96SW2 whole entry) above
Method in brief: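 Binding inhibition was calculated from the 665/620 nm emission ratios, with blank wells and solvent wells as references. Test compounds competed for GST-tagged human Cereblon WT against a Thalidomide-Re reagent paired with GST Eu antibody. Plates were sealed and held at room temperature for 3 hours before the HTRF read.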

IC50 [1] [nM] | SMILES | Degradation of substrate protein IKZF2 (substrate protein remaining %) (IKZF2) | Degradation of substrate protein CK1a (substrate protein remaining %) (CK1a) | Degradation of substrate protein IKZF3 (substrate protein remaining %) (IKZF3) | Degradation of substrate protein WEE1 (substrate protein remaining %) (WEE1) | Degradation of substrate protein IKZF1 (substrate protein remaining %) (IKZF1) | Degradation of substrate protein GSPT1 (substrate protein remaining %) (GSPT1)
 | NCc1ccnc(N2CCC(=O)NC2=O)c1 [GT-07198, 1-(4-(aminomethyl)pyridin-2-yl)dihydropyrimidine-2,4(1H,3H)-dione] | B (B is defined as substrate protein remaining % > 80%) | B (B is defined as substrate protein remaining % > 80%) | A (A is defined as 0% ≤ substrate protein remaining % ≤ 80%) | B (B is defined as substrate protein remaining % > 80%) | B (B is defined as substrate protein remaining % > 80%) | B (B is defined as substrate protein remaining % > 80%)
 | CC(C)(C)[Si](C)(C)OCc1ccc(NC2CCC(=O)NC2=O)nn1 (stereo not drawn) [GT-07726, 3-((6-(((tert-butyldimethylsilyl)oxy)methyl)pyridazin-3-yl)amino)piperidine-2,6-dione] | A (A is defined as 0% ≤ substrate protein remaining % ≤ 80%) | B (B is defined as substrate protein remaining % > 80%) | A (A is defined as 0% ≤ substrate protein remaining % ≤ 80%) | A (A is defined as 0% ≤ substrate protein remaining % ≤ 80%) | A (A is defined as 0% ≤ substrate protein remaining % ≤ 80%) | B (B is defined as substrate protein remaining % > 80%)
 | O=C1CCN(c2cnc(CO)cn2)C(=O)N1 [GT-07634, 1-(5-(hydroxymethyl)pyrazin-2-yl)dihydropyrimidine-2,4(1H,3H)-dione] | A (A is defined as 0% ≤ substrate protein remaining % ≤ 80%) | A (A is defined as 0% ≤ substrate protein remaining % ≤ 80%) | A (A is defined as 0% ≤ substrate protein remaining % ≤ 80%) | A (A is defined as 0% ≤ substrate protein remaining % ≤ 80%) | A (A is defined as 0% ≤ substrate protein remaining % ≤ 80%) | B (B is defined as substrate protein remaining % > 80%)
 | O=C1CCC(c2ccc(CO)nn2)C(=O)N1 (stereo not drawn) [GT-07636, 3-(6-(hydroxymethyl)pyridazin-3-yl)piperidine-2,6-dione] | A (A is defined as 0% ≤ substrate protein remaining % ≤ 80%) | B (B is defined as substrate protein remaining % > 80%) | A (A is defined as 0% ≤ substrate protein remaining % ≤ 80%) | B (B is defined as substrate protein remaining % > 80%) | A (A is defined as 0% ≤ substrate protein remaining % ≤ 80%) | A (A is defined as 0% ≤ substrate protein remaining % ≤ 80%)
 | O=C1CCC(Nc2ncc(CO)cn2)C(=O)N1 (stereo not drawn) [GT-07809, 3-((5-(hydroxymethyl)pyrimidin-2-yl)amino)piperidine-2,6-dione] | A (A is defined as 0% ≤ substrate protein remaining % ≤ 80%) | B (B is defined as substrate protein remaining % > 80%) | A (A is defined as 0% ≤ substrate protein remaining % ≤ 80%) | A (A is defined as 0% ≤ substrate protein remaining % ≤ 80%) | A (A is defined as 0% ≤ substrate protein remaining % ≤ 80%) | B (B is defined as substrate protein remaining % > 80%)
 | O=C1CCC(c2ncc(CO)cc2F)C(=O)N1 (stereo not drawn) [GT-07443, 3-(3-fluoro-5-(hydroxymethyl)pyridin-2-yl)piperidine-2,6-dione] | A (A is defined as 0% ≤ substrate protein remaining % ≤ 80%) | A (A is defined as 0% ≤ substrate protein remaining % ≤ 80%) | B (B is defined as substrate protein remaining % > 80%) | A (A is defined as 0% ≤ substrate protein remaining % ≤ 80%) | A (A is defined as 0% ≤ substrate protein remaining % ≤ 80%) | A (A is defined as 0% ≤ substrate protein remaining % ≤ 80%)
 | CC(C)(C)[Si](C)(C)OCc1ccncc1NC1CCC(=O)NC1=O (stereo not drawn) [GT-07638, 3-((4-(((tert-butyldimethylsilyl)oxy)methyl)pyridin-3-yl)amino)piperidine-2,6-dione] | A (A is defined as 0% ≤ substrate protein remaining % ≤ 80%) | B (B is defined as substrate protein remaining % > 80%) | A (A is defined as 0% ≤ substrate protein remaining % ≤ 80%) | A (A is defined as 0% ≤ substrate protein remaining % ≤ 80%) | B (B is defined as substrate protein remaining % > 80%) | A (A is defined as 0% ≤ substrate protein remaining % ≤ 80%)
 | O=C1CCN(c2cnc(CO)c(F)c2)C(=O)N1 [GT-07555, 1-(5-fluoro-6-(hydroxymethyl)pyridin-3-yl)dihydropyrimidine-2,4(1H,3H)-dione] | A (A is defined as 0% ≤ substrate protein remaining % ≤ 80%) | A (A is defined as 0% ≤ substrate protein remaining % ≤ 80%) | A (A is defined as 0% ≤ substrate protein remaining % ≤ 80%) | A (A is defined as 0% ≤ substrate protein remaining % ≤ 80%) | A (A is defined as 0% ≤ substrate protein remaining % ≤ 80%) | A (A is defined as 0% ≤ substrate protein remaining % ≤ 80%)
1000 to 1900 | Cc1cc(Nc2ncc(Cl)c(Nc3ccccc3S(=O)(=O)C(C)C)n2)c(OC(C)C)cc1C1CCN(Cc2cncc(C3CCC(=O)NC3=O)c2)CC1 (stereo not drawn) [GT-07601, 3-(5-((4-(4-((5-chloro-4-((2-(isopropylsulfonyl)phenyl)amino)pyrimidin-2-yl)amino)-5-isopropoxy-2-methylphenyl)piperidin-1-yl)methyl)pyridin-3-yl)piperidine-2,6-dione] |  |  |  |  |  | 
500 to 1000 | Cc1cc(-c2nc(C(=O)Nc3cc4oc(N5CCN(Cc6cccc(N7CCC(=O)NC7=O)c6)CC5)nc4nc3N3CC[C@@H](O)C3)co2)ccn1 [GT-05808, (R)—N-(2-(4-(3-(2,4-dioxotetrahydropyrimidin-1(2H)-yl)benzyl)piperazin-1-yl)-5-(3-hydroxypyrrolidin-1-yl)oxazolo[4,5-b]pyridin-6-yl)-2-(2-methylpyridin-4-yl)oxazole-4-carboxamide] |  |  |  |  |  | 

SMILES | IC50 [1] [nM] | Degradation of substrate protein IKZF2 (substrate protein remaining %) (IKZF2) | Degradation of substrate protein CK1a (substrate protein remaining %) (CK1a) | Degradation of substrate protein IKZF3 (substrate protein remaining %) (IKZF3) | Degradation of substrate protein WEE1 (substrate protein remaining %) (WEE1) | Degradation of substrate protein IKZF1 (substrate protein remaining %) (IKZF1) | Degradation of substrate protein GSPT1 (substrate protein remaining %) (GSPT1)
O=C1CCC(c2ccc(CN3C4CCC3CN(c3ccc(-c5cc(F)c6c(c5)C(=O)N(C(C(=O)Nc5nccs5)c5ncn7c5CCC7)C6)cc3)C4)cc2)C(=O)N1 (stereo not drawn) [GT-06252, 2-(6,7-dihydro-5H-pyrrolo[1,2-c]imidazol-1-yl)-2-(6-(4-(8-(4-(2,6-dioxopiperidin-3-yl)benzyl)-3,8-diazabicyclo[3.2.1]octan-3-yl)phenyl)-4-fluoro-1-oxoisoindolin-2-yl)-N-(thiazol-2-yl)acetamide] | < 500 |  |  |  |  |  | 

— patent US20260274829A1, “NEW E3 UBIQUITIN LIGASE LIGAND, PROTEIN DEGRADATION AGENT AND USE THEREOF” (GLUETACS THERAPEUTICS (SHANGHAI) CO., LTD., priority 2023, published 2026)
